From patent US8097242B2, “Target CA125 peptides for cancer immunotherapy” (The Board of Trustees of the University of Arkansas, priority 2006, dated 2012)
Entries after “also recorded” stand apart in the source; their conditions may differ. Where no end group is shown, it is not given here.

Key:
[1] = test system: autologous primary ovarian cancer cells endogenously expressing CA125
Description: Cytotoxicity was tested in a 5 hr ^51Cr-release assay against autologous primary ovarian cancer target cells and unpulsed autologous LCL at different Effector cell: Target cell ratios (E:T). Blocking monoclonal antibody (MAb) against non-polymorphic HLA A, B, and C determinants (W6/32) was also used.
Cytotoxicity was tested in a 5 hr 5 Cr-release assay against autologous primary ovarian cancer target cells and autologous LCL at a 20:1 ratio. Blocking monoclonal antibody against non-polymorphic HLA A, B, and C determinants (W6/32) was also used.
Briefly, viable tumor tissue was mechanically minced in RPMI 1640 to portions no larger than 1-3 mm^3 and washed twice with RPMI 1640. The portions of minced tumor were then placed into 250 ml flasks containing 30 ml of enzyme solution [0.14% collagenase Type 1 and 0.01% DNAse 2000 KU/mg; (Sigma)] in RPMI 1640, and incubated on a magnetic stirring apparatus overnight at 4° C. Enzymatically dissociated tumor was then filtered through 150 μm nylon mesh to generate a single cell suspension. The resultant cell suspension was then washed twice in RPMI 1640 plus 10% FBS (fetal bovine serum). Purity of fresh tumor cultures was tested by morphology, immunochemistry staining and/or flow cytometry with antibodies against cytokeratins. Only cell lines containing more than 99% tumor cells were evaluated in cytotoxicity assays. […]

[2] = test system: primary ovarian cancer cell lines; experiment: Real time PCR of CA125 and TADG-12 mRNA after IFN-γ; format: cell-based, human; settings: after exposure to IFN-γ, data not shown
Description: Importantly, because tissue digestion and prolonged in vitro cell culture may potentially alter CA125 and TADG-12 antigen expression, primary ovarian cancer cell lines were evaluated before and after several in vitro passages for CA125 and TADG-12 expression by real time PCR and flow cytometry. Briefly, RNA extraction was performed on autologous primary ovarian cancer cell lines when tumor cells were 50% to 80% confluent after no passages (i.e., P0) and up to a maximum of twenty passages in vitro. RNA isolation was performed using TRIzol Reagent (Invitrogen) according to the manufacturer's instructions. To verify integrity, 4 μg of RNA from each sample was run in 1% agarose gel using 18S+28S Ribosomal RNA (Sigma) as positive control. Briefly, five μg of total RNA from each sample was reverse-transcribed using SuperScript III first strand cDNA synthesis (Invitrogen). […] Quantitative-RT-PCR was performed with an ABI Prism 7000 Sequence Analyzer using the manufacturer's recommended protocol (Applied Biosystems, Foster City, Calif.) to evaluate expression of CA125 and TADG-12 in primary tumors. […] Primers specific for 18S ribosomal RNA and empirically determined ratios of 18S competimers (Applied Biosystems) were used to control for the amount of cDNA generated from each sample. […]

[3] = test system: autologous primary ovarian cancer cells endogenously expressing TADG-12; experiment: 51Cr-release cytotoxicity against autologous ovarian cancer cells expressing TADG-12; format: cell-based, human
Description: FIG. 9. […] A representative experiment from patient 1 is shown.
FIG. 10. CD8^+ CTL recognition of autologous ovarian cancer cells (i.e., K ova) endogenously expressing TADG-12 by TADG-12 P5-stimulated lymphocytes. […] A representative experiment from patient 1 is shown.
Cryopreserved peripheral blood leukocytes (PBL) from patient # 3, harboring advanced stage ovarian cancer, have been used for the generation of DC. Monocyte-derived DC were cultured in AIM-V (Gibco-BRL) supplemented with GM-CSF and IL-4 (1). After 5 days' culture, DC maturation was induced by addition of TNFα, IL-1β and PGE2 (1). Mature DC were pulsed for 1-2 hr at 37° C. with 50 μg/ml of all 8 TADG-12-derived peptides, and washed twice before culture with PBL at a responder:stimulator ratio of 30:1. The culture medium was AIM-V plus 5% human AB serum (Gemini Bioproducts). No IL-2 was added. After 7 days, responder T cells were collected and restimulated with peptide-pulsed DC. For the second and third DC stimulations, the medium was supplemented with 50-100 U/ml IL-2, and the culture period extended to 14 days. After the third cycle, CD8+ T cells were recovered by positive selection with anti-CD8 magnetic beads (Dynal). Subsequent restimulations (passages) of CD8+ T cells used peptide-loaded autologous PBL as antigen-presenting cells.

[4] = test system: primary ovarian cancer cells; experiment: Flow cytometry of MHC class I, HLA-A2 and ICAM-1 on primary ovarian tumor cells after IFN-γ; format: cell-based, human; settings: 500 U/ml for 48 hrs
Description: Briefly, tumor cells were harvested with 0.25 percent trypsin in HBBS (Gibco, Grand Island, N.Y.) and washed once in complete medium. Cell suspensions were counted and distributed into 12×75 mm tubes at 5×10^5 cells/tube. Mouse monoclonal antibodies [anti-HLA class I (MAb W6/32); anti-HLA-A2 (BB7-2) and anti-HLA Class II (MAb CR3-43) Accurate Chemical and Scientific Corporation, Westbury, N.Y.); and anti-ICAM-1 (MAb LB-2; Becton Dickinson)] were diluted in cold assay buffer (PBS, pH 7.2, supplemented with 0.1% FCS) and added in a 50-μl volume. A mouse IgG preparation (MAb IgG2a; Becton Dickinson) was used as negative control. Tumor cells were analyzed by FACScan (Becton Dickinson) utilizing Cell Quest software (Becton Dickinson).
In contrast, MHC class II molecule expression was negligible in all 3 primary tumor cell lines tested (data not shown).

[5] = test system: autologous LCL pulsed with CA125-derived peptides; experiment: 51Cr-release cytotoxicity of peptide-specific CD8+ T cells against LCL pulsed with CA125 peptides; format: cell-based, human; settings: CD8+ T cells from a healthy donor, autologous LCL pulsed with 50 μg/ml peptide, 5 hour 51Cr-release
Description: Dendritic cells were loaded with the CA125 peptides of Table 3 and used to amplify CD8+ T cells cytotoxic against cells displaying the cognate peptide as described in Example 5. The amplified CD8+ T cell lines were tested for cytoxicity against autologous lymphoblastoid cell lines (LCL) pulsed with the CA125 peptide used to amplify the T cells. Cytotoxicity was tested in a 5 hour ^51Cr-release assay against autologous LCL and autologous LCL pulsed with 50 μg/ml peptide (5, 6). […] Natural killer (NK)-sensitive K562 cells were not lysed (data not shown).

autologous unpulsed LCL = experiment: 51Cr-release cytotoxicity against unpulsed autologous LCL; format: cell-based, human; settings: CTL stimulated by CA125 P10-pulsed autologous DC

Substance: FMVPFTLNFT [P11 CA125/10, FMVPfTLNFT]
- cytotoxicity against autologous primary ovarian cancer cells endogenously expressing CA125 [1]: Unlike peptides 7, 11 and 12, only the CA125 YTLDrDSLYV (SEQ ID NO:10) peptide (P10) was found to be reliably cytotoxic

Substance: IFN-γ: Cytokine to which primary ovarian tumor cells were exposed (500 U/ml for 48 hrs)
- expression levels of CA125 and TADG-12 mRNA [2]: did not detect any change
- effect of IFN-γ exposure of tumor cells on recognition and killing by peptide-specific CTL ([3]; exposure for 48 hrs): further increased recognition and killing of autologous ovarian cancer cells; also recorded: significantly increase the cytotoxic activity
- MHC class I, HLA-A2 and ICAM-1 expression levels [4]: markedly up-regulate

Substance: LLMPfTLNFT (LLMPFTLNFT; listed as Homo sapiens) [P9 CA125/10]
- % Lysis [5]: 0%

Substance: TLLVTGTSRV [P12 CA125/10, TLLVtGTSRV]
- cytotoxicity against autologous primary ovarian cancer cells endogenously expressing CA125 [1]: Unlike peptides 7, 11 and 12, only the CA125 YTLDrDSLYV (SEQ ID NO:10) peptide (P10) was found to be reliably cytotoxic

Substance: YLPKSWTIQV [P5 TADG12/10, YLPKsWTIQV]
- cytotoxicity against autologous primary ovarian cancer cells endogenously expressing TADG-12 ([3]; TADG-12 peptides, CTL stimulated by peptide-pulsed DC, 5 hr 51Cr-release, listed as SEQ ID NO: 17): consistently lyse autologous ovarian tumor cells expressing TADG-12

Substance: YTLDRDSLYV [P10 CA125/10, YTLDrDSLYV]
- cytotoxicity against autologous unpulsed LCL (autologous unpulsed LCL): not against autologous unpulsed LCL
